# In US9757353B2, “Methods of inducing anesthesia” (THE REGENTS OF THE UNIVERSITY OF CALIFORNIA, priority 2012, dated 2017):
# Assays:
# [1] = molecular target: T1, NMDA (NR1/NR2A) receptors (Rattus norvegicus, UniProt P35439+Q00959); assay: Oocyte two-electrode voltage clamp, NMDA receptor currents; type: cell-based; conditions: for NMDA % Direct Effect: drug response without receptor agonist, percent of control agonist peak, saturated drug, mean ± SEM, 5-6 oocytes; for NMDA Drug Response: saturated drug + agonist; for direct effect on NMDA receptors (in words): absence of glutamate and glycine agonist
# T1 construct: expressed in transfected cells; host or cells: Xenopus laevis oocytes, injected with in vitro transcribed RNA (1:1), clones a gift from Dr. R. A. Harris
# Source text: Methods: GABAA (α1β2γ2s) or NMDA (NR1/NR2A) receptors were expressed in oocytes and studied using standard two-electrode voltage clamp techniques. Hydrocarbons from 14 different organic functional groups were studied at saturated concentrations, and compounds within each group differed only by the carbon number at the ω-position or within a saturated ring. An effect on GABAA or NMDA receptors was defined as a 10% or greater reversible current change from baseline that was statistically different from zero.
# Oocyte Collection and Receptor Expression. An ovary from tricaine-anesthetized Xenopus laevis frogs was surgically removed using a protocol approved by the Institutional Animal Care and Use Committee at the University of California, Davis. Following manual disruption of the ovarian lobule septae, the ovary was incubated in 0.2% Type I collagenase (Worthington Biochemical, Lakewood, N.J.) to defolliculate oocytes which were washed and stored in fresh and filtered modified Barth's solution composed of 88 mM NaCl, 1 mM KCl, 2.4 mM NaHCO3, 20 mM HEPES, 0.82 mM MgSO4, 0.33 mM Ca(NO3)2, 0.41 mM CaCl2, 5 mM sodium pyruvate, gentamycin, penicillin, streptomycin, and corrected to pH=7.4. All salts and antibiotics were A.C.S. grade (Fisher Scientific, Pittsburgh, Pa.).
# Clones used were provided as a gift from Dr. R. A. Harris (University of Texas, Austin) and were sequenced and compared to references in the National Center for Biotechnology Information database to confirm the identity of each gene. GABAA receptors were expressed using clones for the human GABAA α1 and the rat GABAA β2 and γ2s subunits in pCIS-II vectors. […] In separate oocytes, glutamate receptors were expressed using rat NMDA NR1 clones in a pCDNA3 vector and rat NMDA NR2A clones in a Bluescript vector. RNA encoding each subunit was prepared using a commercial transcription kit (T7 mMessage mMachine, Ambion, Austin, Tex.) was mixed in a 1:1 ratio, and 1-10 ng of total RNA was injected into oocytes and studied 1-2 days later.
# NMDA Receptor Electrophysiology Studies. […] Briefly, baseline perfusion solutions were the same as for GABAA with the substitution of equimolar BaCl2 for calcium salts and the addition of 0.1 mM EGTA; this constituted barium frog Ringer's solution (BaFR). Agonist solutions for NMDA studies also contained 0.1 mM glutamate (E) and 0.01 mM glycine (G) to constitute a BaFREG solution.
# The syringe pump and perfusion chamber apparatus as well as the clamp holding potential and baseline-agonist exposure protocols were identical to that described for the GABAA studies. The same test compounds, concentrations, and preparative methods were used in NMDA voltage clamp studies as in the GABAA voltage clamp studies (Table 2).
# Response Calculations and Data Analysis. Modulating drug responses were calculated as the percent of the control (baseline) peak as follows:
# [formula] where ID and IB were the peak currents measured during agonist+drug and agonist baseline perfusions, respectively. When present, direct receptor activation by a drug was similarly calculated as a percent of the agonist response. […] A lack of receptor response (cut-off) was defined as a <10% change from baseline current that was statistically indistinguishable from zero using a two-tailed Student t-test.
# [2] = molecular target: GABAA (α1β2γ2s) receptors (UniProt P14867+P18508+P63138); assay: Oocyte two-electrode voltage clamp, GABAA receptor currents; conditions: for GABAA % Direct Effect: drug response without receptor agonist, percent of control agonist peak, saturated drug, mean ± SEM, 5-6 oocytes; for GABAA Drug Response: saturated drug + agonist
# Method: GABAA receptors were expressed using clones for the human GABAA α1 and the rat GABAA β2 and γ2s subunits in pCIS-II vectors. […] These plasmid ratios ensured incorporation of the γ-subunit into expressed receptors, as confirmed via receptor potentiation to 10 μM chlordiazepoxide or insensitivity to 10 μM zinc chloride during co-application with GABA. In separate oocytes, glutamate receptors were expressed using rat NMDA NR1 clones in a pCDNA3 vector and rat NMDA NR2A clones in a Bluescript vector. RNA encoding each subunit was prepared using a commercial transcription kit (T7 mMessage mMachine, Ambion, Austin, Tex.) was mixed in a 1:1 ratio, and 1-10 ng of total RNA was injected into oocytes and studied 1-2 days later.
# Oocytes were studied in a 250 μL linear-flow perfusion chamber with solutions administered by syringe pump at 1.5 ml/min with gastight glass syringes and Teflon tubing. Oocyte GABAA currents were studied using standard two-electrode voltage clamping techniques at a holding potential of 80 mV using a 250 μL channel linear-flow perfusion chamber with solutions administered by syringe pump at 1.5 mL/min.
# After FR perfusion for 5 min, oocytes were exposed to 30 sec FR-GABA followed by another 5 min FR washout; this was repeated until stable GABAA-elicited peaks were obtained. Next, FR containing a saturated solution of the study drug (Table 2)—or for gaseous study compounds a vapor pressure equal to 90% of barometric pressure with balance oxygen—was used to perfuse the oocyte chamber for 2 min followed by perfusion with a FR-GABA solution containing the identical drug concentration for 30 sec.
# [formula] where ID and IB were the peak currents measured during agonist+drug and agonist baseline perfusions, respectively. When present, direct receptor activation by a drug was similarly calculated as a percent of the agonist response. Average current responses for each drug and channel were described by mean±SD. A lack of receptor response (cut-off) was defined as a <10% change from baseline current that was statistically indistinguishable from zero using a two-tailed Student t-test.
# [3] = saturating aqueous concentration
# Sequence of GABAA (α1β2γ2s) receptors (P14867 28-456): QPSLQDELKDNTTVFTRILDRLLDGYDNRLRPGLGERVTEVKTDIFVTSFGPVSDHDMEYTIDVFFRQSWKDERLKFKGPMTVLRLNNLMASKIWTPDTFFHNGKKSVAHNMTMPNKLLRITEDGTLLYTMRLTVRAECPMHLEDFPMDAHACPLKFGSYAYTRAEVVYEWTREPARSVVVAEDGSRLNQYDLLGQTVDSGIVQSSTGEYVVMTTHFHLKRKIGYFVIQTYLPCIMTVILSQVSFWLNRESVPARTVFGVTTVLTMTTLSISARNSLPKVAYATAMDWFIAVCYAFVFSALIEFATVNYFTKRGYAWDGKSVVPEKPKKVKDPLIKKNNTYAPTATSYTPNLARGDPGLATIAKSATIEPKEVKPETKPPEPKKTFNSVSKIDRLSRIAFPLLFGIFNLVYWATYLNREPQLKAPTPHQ
# Sequence of GABAA (α1β2γ2s) receptors (P63138 25-474 limits assumed): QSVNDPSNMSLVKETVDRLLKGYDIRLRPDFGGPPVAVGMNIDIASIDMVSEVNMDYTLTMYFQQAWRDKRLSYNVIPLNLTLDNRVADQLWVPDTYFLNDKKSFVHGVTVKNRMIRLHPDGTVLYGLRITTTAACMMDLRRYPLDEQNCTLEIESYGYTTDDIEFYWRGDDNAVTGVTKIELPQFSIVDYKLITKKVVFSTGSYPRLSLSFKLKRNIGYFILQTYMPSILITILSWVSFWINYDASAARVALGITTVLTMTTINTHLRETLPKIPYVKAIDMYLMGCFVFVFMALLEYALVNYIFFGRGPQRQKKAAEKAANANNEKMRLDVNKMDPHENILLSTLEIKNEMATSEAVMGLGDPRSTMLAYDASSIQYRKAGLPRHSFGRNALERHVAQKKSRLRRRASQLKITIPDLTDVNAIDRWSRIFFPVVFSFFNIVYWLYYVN
# Sequence of GABAA (α1β2γ2s) receptors (P18508 39-466): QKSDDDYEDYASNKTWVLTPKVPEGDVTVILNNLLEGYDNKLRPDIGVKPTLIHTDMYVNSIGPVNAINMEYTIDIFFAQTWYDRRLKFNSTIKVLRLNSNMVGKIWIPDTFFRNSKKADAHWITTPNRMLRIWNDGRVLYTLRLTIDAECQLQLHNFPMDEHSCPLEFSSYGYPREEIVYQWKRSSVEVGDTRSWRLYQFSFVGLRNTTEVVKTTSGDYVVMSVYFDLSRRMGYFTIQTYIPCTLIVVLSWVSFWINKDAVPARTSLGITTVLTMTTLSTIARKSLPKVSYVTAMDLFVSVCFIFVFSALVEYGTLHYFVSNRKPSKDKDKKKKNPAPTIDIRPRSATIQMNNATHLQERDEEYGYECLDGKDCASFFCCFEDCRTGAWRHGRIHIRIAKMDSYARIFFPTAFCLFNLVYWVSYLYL
# T1 sequence (Q00959 23-1464, other chains not shown): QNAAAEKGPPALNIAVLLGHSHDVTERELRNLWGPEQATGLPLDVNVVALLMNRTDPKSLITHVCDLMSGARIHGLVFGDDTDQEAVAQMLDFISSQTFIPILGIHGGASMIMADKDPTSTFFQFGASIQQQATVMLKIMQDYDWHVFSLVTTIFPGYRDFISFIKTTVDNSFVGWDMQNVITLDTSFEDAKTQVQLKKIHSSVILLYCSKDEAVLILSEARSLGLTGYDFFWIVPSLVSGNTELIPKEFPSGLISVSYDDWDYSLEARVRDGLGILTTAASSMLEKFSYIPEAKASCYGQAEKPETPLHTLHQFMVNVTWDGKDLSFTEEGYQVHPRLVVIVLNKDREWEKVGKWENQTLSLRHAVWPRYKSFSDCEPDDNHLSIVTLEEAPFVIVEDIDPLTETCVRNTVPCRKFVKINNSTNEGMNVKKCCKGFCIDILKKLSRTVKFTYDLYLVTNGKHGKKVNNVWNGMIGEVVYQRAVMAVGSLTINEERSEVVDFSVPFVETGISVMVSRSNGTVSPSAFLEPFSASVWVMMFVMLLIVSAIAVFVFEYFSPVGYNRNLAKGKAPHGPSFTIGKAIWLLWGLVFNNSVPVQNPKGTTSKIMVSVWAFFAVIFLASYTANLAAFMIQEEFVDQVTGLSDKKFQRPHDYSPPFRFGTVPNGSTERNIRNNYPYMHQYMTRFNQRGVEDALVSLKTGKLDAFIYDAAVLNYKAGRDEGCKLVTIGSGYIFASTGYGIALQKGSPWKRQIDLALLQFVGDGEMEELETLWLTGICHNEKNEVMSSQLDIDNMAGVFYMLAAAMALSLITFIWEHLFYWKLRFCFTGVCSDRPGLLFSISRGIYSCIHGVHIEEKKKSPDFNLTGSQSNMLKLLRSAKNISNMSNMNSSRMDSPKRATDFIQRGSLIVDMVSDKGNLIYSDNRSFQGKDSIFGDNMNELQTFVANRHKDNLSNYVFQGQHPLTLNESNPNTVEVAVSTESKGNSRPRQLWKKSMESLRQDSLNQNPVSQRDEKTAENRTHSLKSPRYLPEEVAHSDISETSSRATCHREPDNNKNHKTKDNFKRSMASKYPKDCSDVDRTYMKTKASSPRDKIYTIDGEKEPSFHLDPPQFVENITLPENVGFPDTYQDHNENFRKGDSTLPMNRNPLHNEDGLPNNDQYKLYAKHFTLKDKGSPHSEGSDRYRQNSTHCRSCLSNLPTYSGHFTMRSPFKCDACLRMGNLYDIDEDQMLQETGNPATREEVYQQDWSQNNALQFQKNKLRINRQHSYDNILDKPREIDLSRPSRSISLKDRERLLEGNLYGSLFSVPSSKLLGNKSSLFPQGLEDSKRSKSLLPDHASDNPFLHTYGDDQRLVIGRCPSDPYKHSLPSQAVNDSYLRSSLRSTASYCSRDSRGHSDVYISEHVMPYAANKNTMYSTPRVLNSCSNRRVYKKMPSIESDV
Molecule,NMDA % Direct Effect [1],NMDA Drug Response [1],GABAA % Direct Effect [2],GABAA Drug Response [2],direct effect on NMDA receptors (in words) [1],"NMDA receptor modulation (in words) [1, 3]","GABAA receptor modulation (in words) [2, 3]"
"CCc1cccc(CC)c1 [1,3-diethylbenzene]",none,0 (no response (0) for drug+agonist responses that differ by <10% from the control agonist peak),none,+ (potentiation (+) for drug+agonist responses greater than the control agonist peak),–,–,–
CCCCCCSCC [1-(ethylthio)-hexane],none,–,none,+ (potentiation (+) for drug+agonist responses greater than the control agonist peak),–,–,–
CCCCCCCCSCC [1-(ethylthio)-octane],none,0 (no response (0) for drug+agonist responses that differ by <10% from the control agonist peak),none,+ (potentiation (+) for drug+agonist responses greater than the control agonist peak),–,–,–
CCCCCCCCCCO [1-decanol],none,–,none,+ (potentiation (+) for drug+agonist responses greater than the control agonist peak),–,–,–
CCCCCCCCCCCCO [1-dodecanol],none,0 (no response (0) for drug+agonist responses that differ by <10% from the control agonist peak),none,+ (potentiation (+) for drug+agonist responses greater than the control agonist peak),–,–,–
CCCCCCCCCCCCCCCCCCCCN [1-eicosanamine],none,0 (no response (0) for drug+agonist responses that differ by <10% from the control agonist peak),none,+ (potentiation (+) for drug+agonist responses greater than the control agonist peak),–,–,–
CCCCCCCCF [1-fluoroctane],none,0 (no response (0) for drug+agonist responses that differ by <10% from the control agonist peak),none,+ (potentiation (+) for drug+agonist responses greater than the control agonist peak),–,–,–
CCCCCCF [1-fluorohexane],none,0 (no response (0) for drug+agonist responses that differ by <10% from the control agonist peak),–,+ (potentiation (+) for drug+agonist responses greater than the control agonist peak),–,–,–
CCCCCF [1-fluoropentane],none,–,none,+ (potentiation (+) for drug+agonist responses greater than the control agonist peak),–,–,–
C#CCCCCC [1-heptyne],none,–,none,+ (potentiation (+) for drug+agonist responses greater than the control agonist peak),–,–,–
CCCCCCS [1-hexanethiol],none,0 (no response (0) for drug+agonist responses that differ by <10% from the control agonist peak),–,+ (potentiation (+) for drug+agonist responses greater than the control agonist peak),–,–,–
C=CCCCC [1-hexene],none,0 (no response (0) for drug+agonist responses that differ by <10% from the control agonist peak),none,+ (potentiation (+) for drug+agonist responses greater than the control agonist peak),–,–,–
C#CCCCC [1-hexyne],none,–,–,+ (potentiation (+) for drug+agonist responses greater than the control agonist peak),–,–,–
CCCCCCCCCCCCCCCCCCN [1-octadecanamine],none,–,none,+ (potentiation (+) for drug+agonist responses greater than the control agonist peak),–,–,–
C#CCCCCCC [1-octyne],none,0 (no response (0) for drug+agonist responses that differ by <10% from the control agonist peak),none,+ (potentiation (+) for drug+agonist responses greater than the control agonist peak),–,–,–
C=CCCC [1-pentene],none,–,2 ± 3%,+ (potentiation (+) for drug+agonist responses greater than the control agonist peak),–,–,–
CCCCCCCCCCCO [1-undecanol],none,0 (no response (0) for drug+agonist responses that differ by <10% from the control agonist peak),none,+ (potentiation (+) for drug+agonist responses greater than the control agonist peak),–,–,–
CCCCCCCCC(C)=O [2-decanone],none,–,none,+ (potentiation (+) for drug+agonist responses greater than the control agonist peak),–,–,–
CCCCCCCCCCC(C)=O [2-dodecanone],none,0 (no response (0) for drug+agonist responses that differ by <10% from the control agonist peak),none,+ (potentiation (+) for drug+agonist responses greater than the control agonist peak),–,–,–
CCCCCCCCCC(C)=O [2-undecanone],none,0 (no response (0) for drug+agonist responses that differ by <10% from the control agonist peak),none,+ (potentiation (+) for drug+agonist responses greater than the control agonist peak),–,–,–
CN1CCOCC1 [4-methylmorpholine],–,–,–,–,direct activation of NMDA receptors,–,–
CCCC [butane],none,–,none,+ (potentiation (+) for drug+agonist responses greater than the control agonist peak),–,negatively modulates NMDA receptors,positively modulate GABAA receptors
C1CCCCC1 [cyclohexane],none,0 (no response (0) for drug+agonist responses that differ by <10% from the control agonist peak),none,+ (potentiation (+) for drug+agonist responses greater than the control agonist peak),–,–,–
C1CCCC1 [cyclopentane],none,–,–,+ (potentiation (+) for drug+agonist responses greater than the control agonist peak),–,–,–
CCCCCCCCCC=O [decanal],none,0 (no response (0) for drug+agonist responses that differ by <10% from the control agonist peak),none,+ (potentiation (+) for drug+agonist responses greater than the control agonist peak),–,–,–
CCCCCCOCCCCCC [dihexylether],none,0 (no response (0) for drug+agonist responses that differ by <10% from the control agonist peak),none,+ (potentiation (+) for drug+agonist responses greater than the control agonist peak),–,–,–
CCCCCOCCCCC [dipentylether],none,0 (no response (0) for drug+agonist responses that differ by <10% from the control agonist peak),none,+ (potentiation (+) for drug+agonist responses greater than the control agonist peak),–,–,–
CCCCCCCCCC(=O)OCC [ethyl decanoate],none,0 (no response (0) for drug+agonist responses that differ by <10% from the control agonist peak),none,+ (potentiation (+) for drug+agonist responses greater than the control agonist peak),–,–,–
N-methylpiperadine,–,–,–,–,direct activation of NMDA receptors,–,–
